Reference: patent US9840716B2, “Resveratrol-enriched rice and the use thereof” (REPUBLIC OF KOREA (MANAGEMENT: RURAL DEVELOPMENT …, priority 2012, dated 2017)

What was measured:
[1] = tested on: animal models (mice) induced with a metabolic disease by a long-term high fat diet; assay: Comparative measurement of blood glucose in animal models induced with a metabolic disease; assay type: in vivo, C57BL/6 inbred mice; conditions: 12 weeks of feeding, compared with control or comparison groups
From the text: The effects of rice containing resveratrol of the present invention at high concentration on a metabolic disease were examined using animal models (mice) induced with a metabolic disease by a long-term high fat diet. Particularly, each of 15 C57BL/6 inbred mice was fed with a high fat diet for 12 weeks, thereby establishing models induced with a metabolic disease such as diabetes, obesity, hyperlipidemia, hypercholesterolemia, etc. Next, the feed produced from seeds of transformed rice or Dongjin rice was distributed to animals for 12 weeks. After 12 weeks of distribution, via blood sampling from a tail vein once every 3 weeks, blood glucose, cholesterol, etc., were analyzed, thereby examining the effects of resveratrol-enriched transgenic rice and transformed rice in animal models induced with a metabolic disease. As described above, after feeding feed for experimental animals, in which carbohydrate components were replaced with Dongjin rice and resveratrol-enriched transgenic rice to mice induced with a metabolic disease, the level of blood glucose was measured (FIG. 2). […] As described above, after feeding the feed, in which carbohydrate components were replaced with Dongjin rice and resveratrol-enriched transgenic rice, to mice with an induced metabolic disease, the level of blood glucose was measured (FIG. 5).

yeasts = conditions: on average, when resveratrol is added; cited from earlier work

In the case of `Oc1ccc(C=Cc2cc(O)cc(O)c2)cc1` [resveratrol], the “blood glucose level (result in words)” value [1] is given as “did not show a remarkable difference” and the “increase of the life span of yeasts” value (yeasts) is given as 70%.
